Reference: ChEMBL document CHEMBL5107998, “Structure-Activity relationship of 1-(Furan-2ylmethyl)Pyrrolidine-Based Stimulation-2 (ST2) inhibitors for treating graft versus host disease” (Bioorg Med Chem, 2022)
The source made the active and inactive calls. The calls are words filed in the database; no cut-off is given here.

How the values were obtained:
[1] = Metabolic stability in pooled CD-1 mouse liver microsomes assessed as half life at 1 uM incubated for 60 mins in presence of NADPH by LC-MS/MS analysis; format: ADME, Microsome
[2] = Metabolic stability in pooled human liver microsomes assessed as half life at 1 uM incubated for 60 mins in presence of NADPH by LC-MS/MS analysis; format: ADME, Microsome
[3] = Inhibition of ST2/IL-33 (unknown origin) interaction in HEK-Blue IL-33 cells assessed as reduction in NF-kapaB activation by measuring SEAP reporter level incubated for 20 hrs by QUANTI-Blue reagent based assay; format: cell-based; conditions: Homo sapiens, HEK-Blue IL-33, 20 h
[4] = Inhibition of ST2/IL-33 (unknown origin) interaction incubated for 1 hr by AlphaLISA assay; set-up: species or system Homo sapiens
[5] = Cytotoxicity against HEK-Blue IL-33 cells assessed as reduction in cell viability at upto 333 uM incubated for 20 hrs by CellTiter 96 aqueous one solution cell proliferation assay; format: toxicity, cell-based; conditions: human, hek-blue il-33, 20 h
[6] = Half life in CD-1 mouse at 40 mg/kg, ip measured for 7 hrs by LC-MS/MS analysis; format: ADME, organism-based; conditions: in vivo
T-cell = assay: Induction of expansion of C57BL/6 mouse tolerogenic CD4-positive […] regulatory T cells incubated for 7 days in presence of T cell-depleted and irradiated splenocytes from allogeneic C3H.SW mouse by mixed lymphocyte reaction assay; format: functional, cell-based; conditions: dose 1-10 µM, time 7.0 day, DDE = dose-dependent effect
CD8-positive T cell = assay: Inhibition of cell proliferation in C57BL/6 mouse spleen CD8-positive T cells at 1 to 10 uM incubated for 7 days in presence of T cell-depleted and irradiated splenocytes from allogeneic C3H.SW mouse by mixed lymphocyte reaction assay; format: functional, cell-based; conditions: dose 1-10 µM, time 7.0 day
CD4+ve Th = assay: Inhibition of cell proliferation in C57BL/6 mouse spleen CD4-positive T cells at 1 to 10 uM incubated for 7 days in presence of T cell-depleted and irradiated splenocytes from allogeneic C3H.SW mouse by mixed lymphocyte reaction assay; format: functional, cell-based; conditions: dose 1-10 µM, time 7.0 day
[7] = Reduction in expansion of C57BL/6 mouse tolerogenic CD4-positive […] regulatory T cells at 1 to 10 uM incubated for 7 days in presence of T cell-depleted and irradiated splenocytes from allogeneic C3H.SW mouse by mixed lymphocyte reaction assay relative to control; format: functional; set-up: scale not given: the % may be the effect or the level left; conditions: dose 1-10 µM, time 7 day

IC50 [3] [µM]	IC50 [4] [µM]	Compound	also measured
53.8	21.5	O=[N+]([O-])c1ccccc1-c1ccc(CN2CCCC2c2ccc(N3CCCCC3)cc2)o1 (centres undefined)	half-life at 1 µM [1]: 1.29 min; half-life at 1 µM [2]: 1.95 min
62	12.9	O=[N+]([O-])c1ccccc1-c1ccc(CN2CCCC2c2ccc(N3CCCC3)cc2)o1 (centres undefined)	Activity [5]: Non-Toxic; half-life at 1 µM [1]: 2.67 min; half-life at 1 µM [2]: 10.1 min
	29.4	O=[N+]([O-])c1ccccc1-c1ccc(CN2CCCC2c2ccc3c(c2)OCCO3)o1 (centres undefined)	
30.6	6.6	COc1ccc(-c2ccc(CN3CCC[C@H]3c3ccc(N(C)C)cc3)o2)c([N+](=O)[O-])c1	
	54.3	CN(C)Cc1cccc(C2CCCN2Cc2ccc(-c3ccccc3[N+](=O)[O-])o2)c1 (centres undefined)	
	21.2	CN(C)c1ccc(C2CCCN2Cc2ccc(-c3ccc(Cl)cc3[N+](=O)[O-])o2)cc1 (centres undefined)	
	97.6	O=[N+]([O-])c1ccccc1-c1ccc(CN2CCCC2c2ccccc2)o1 (centres undefined)	
42.5	7.73	Cc1cc([N+](=O)[O-])ccc1-c1ccc(CN2CCCC2c2ccc(N(C)C)cc2)o1 (centres undefined)	half-life at 1 µM [1]: 3.64 min; half-life at 1 µM [2]: 13.7 min; t1/2 [6]: 92.4 min
	220	COc1ccc(C2CCCN2Cc2ccc(-c3ccccc3C(=O)O)o2)cc1 (centres undefined)	
33.3	19.6	CN(C)c1ccc(C2CCCN2Cc2ccc(-c3ccccc3[N+](=O)[O-])o2)cc1 (centres undefined)	Activity [5]: Non-Toxic; Activity (T-cell): Dde; half-life at 1 µM [1]: 0.95 min; half-life at 1 µM [2]: 2.54 min; inhibition (CD8-positive T cell): Active; t1/2 [6]: 224 min; inhibition (CD4+ve Th): Active
85.3	6.42	O=[N+]([O-])c1ccccc1-c1ccc(CN2CCCC2c2cccc(N3CCCC3)c2)o1 (centres undefined)	half-life at 1 µM [1]: 5.61 min; half-life at 1 µM [2]: 2.27 min
	115	COc1ccc(C2CCCN2Cc2ccc(-c3ccccc3F)o2)cc1 (centres undefined)	
	26.7	COc1cccc(C2CCCN2Cc2ccc(-c3ccccc3[N+](=O)[O-])o2)c1 (centres undefined)	
	22.1	COc1ccc(C2CCCN2Cc2ccc(-c3ccc([N+](=O)[O-])cc3)o2)cc1 (centres undefined)	
	116	COc1ccc(C2CCCN2Cc2ccc(-c3ccccc3C#N)o2)cc1 (centres undefined)	
	35.4	COc1ccc(C2CCCN2Cc2ccc(-c3cccc([N+](=O)[O-])c3)o2)cc1 (centres undefined)	

IC50 [3] [µM]	IC50 [4] [µM]	Compound	also measured
	7.14	O=[N+]([O-])c1ccccc1-c1ccc(CN2CCCC2c2cccc(N3CCCCC3)c2)o1 (centres undefined)	
	167	COc1ccc(C2CCCN2Cc2ccc(-c3ccccc3C(N)=O)o2)cc1 (centres undefined)	
	6.12	Cc1cc([N+](=O)[O-])ccc1-c1ccc(CN2CCCC2c2cccc(N(C)C)c2)o1 (centres undefined)	half-life at 1 µM [1]: 4.2 min; half-life at 1 µM [2]: 4.7 min
56.4	10.4	COc1ccc(-c2ccc(CN3CCC[C@@H]3c3ccc(N(C)C)cc3)o2)c([N+](=O)[O-])c1	
53.1	8.11	Cc1cc([N+](=O)[O-])ccc1-c1ccc(CN2CCC[C@@H]2c2ccc(N(C)C)cc2)o1	
41.4	9.11	Cc1ccc(-c2ccc(CN3CCCC3c3ccc(N(C)C)cc3)o2)c([N+](=O)[O-])c1 (centres undefined)	Activity [5]: Non-Toxic
	80.9	O=C(O)c1ccc(C2CCCN2Cc2ccc(-c3ccccc3[N+](=O)[O-])o2)cc1 (centres undefined)	Activity [7]: 10%
39.1	8.06	Cc1ccc([N+](=O)[O-])c(-c2ccc(CN3CCCC3c3ccc(N(C)C)cc3)o2)c1 (centres undefined)	Activity [5]: Non-Toxic; half-life at 1 µM [1]: 0.89 min
44.7	5.46	CN(C)c1cccc(C2CCCN2Cc2ccc(-c3ccccc3[N+](=O)[O-])o2)c1 (centres undefined)	half-life at 1 µM [1]: 0.78 min; half-life at 1 µM [2]: 0.57 min
	20.6	COC(=O)c1ccc(C2CCCN2Cc2ccc(-c3ccccc3[N+](=O)[O-])o2)cc1 (centres undefined)	
42.5	6.31	Cc1cc([N+](=O)[O-])ccc1-c1ccc(CN2CCC[C@H]2c2ccc(N(C)C)cc2)o1	
48.5	12.3	COc1ccc(-c2ccc(CN3CCCC3c3ccc(N(C)C)cc3)o2)c([N+](=O)[O-])c1 (centres undefined)	Activity [5]: Non-Toxic
	23.4	COc1ccccc1C1CCCN1Cc1ccc(-c2ccccc2[N+](=O)[O-])o1 (centres undefined)	
	53	COC(=O)Cc1cccc(C2CCCN2Cc2ccc(-c3ccccc3[N+](=O)[O-])o2)c1 (centres undefined)	
56.4	46.6	COc1ccc(C2CCCN2Cc2ccc(-c3ccccc3[N+](=O)[O-])o2)cc1 (centres undefined)	half-life at 1 µM [1]: 0.73 min; half-life at 1 µM [2]: 1.1 min; t1/2 [6]: 85.8 min
